In patent US20220324865A1 (Bayer Aktiengesellschaft, priority 2018, published 2022):

The molecules below were run against T1, human EP3 receptor (Homo sapiens, UniProt P43115) (assay: Cellular in vitro assay for determining EP3 receptor activity (human EP3 cell line, sulprostone-stimulated calcium luminescence)). Conditions: CHO cells expressing human EP3 and mitochondrial Clytin; antagonist mode, sulprostone at EC50; read-out: EP3 CHO mtCLY ANTAG IC50.
T1 construct: expressed in transfected cells; host or cells: CHO K1 (Chinese Hamster Ovary), stably co-transfected with Galpha16 and mitochondrial clytin
T1 sequence (P43115 1-390): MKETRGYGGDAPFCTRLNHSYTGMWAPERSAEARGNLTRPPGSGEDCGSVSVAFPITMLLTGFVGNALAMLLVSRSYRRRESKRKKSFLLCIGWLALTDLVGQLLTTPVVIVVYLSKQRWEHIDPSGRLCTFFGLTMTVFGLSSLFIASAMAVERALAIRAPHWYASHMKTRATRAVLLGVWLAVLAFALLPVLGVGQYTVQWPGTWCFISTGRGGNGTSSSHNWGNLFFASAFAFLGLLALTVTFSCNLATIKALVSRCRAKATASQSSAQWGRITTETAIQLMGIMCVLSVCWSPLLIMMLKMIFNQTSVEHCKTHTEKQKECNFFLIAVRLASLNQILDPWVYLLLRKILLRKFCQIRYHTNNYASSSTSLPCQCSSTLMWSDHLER
Format: cell-based
Method in brief: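 CHO K1 cells stably expressing human EP3 with Gα16 and mitochondrial Clytin, loaded overnight with coelenterazine. Compounds added 10 min before sulprostone at its EC50; antagonism read immediately as reduced calcium-driven luminescence, quadruplicate points.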

Compound | IC50
CC(C)(O)[C@@H](NC(=O)c1cc2c(=O)[nH]c(-c3ccc4ccccc4c3)cn2n1)c1ccccc1 [Example 1-3, N-[(1S)-2-Hydroxy-2-methyl-1-phenylpropyl]-6-(naphthalen-2-yl)-4-oxo-4,5-dihydropyrazolo-[1,5-a]pyrazine-2-carboxamide] | 0.653 nM
CCn1nccc1CNC(=O)c1nn2c(C)c(-c3ccc4ccccc4c3)[nH]c(=O)c2c1C [Example 1-68, N-[(1-Ethyl-1H-pyrazol-5-yl)methyl]-3,7-dimethyl-6-(naphthalen-2-yl)-4-oxo-4,5-dihydropyrazolo-[1,5-a]pyrazine-2-carboxamide] | 1.42 nM
O=C(NC1CCCc2ccccc21)c1cc2c(=O)[nH]c(-c3ccc4ccccc4c3)cn2n1 (stereo not drawn) [Example 2-32, 6-(2-Naphthyl)-4-oxo-N-[1,2,3,4-tetrahydronaphthalin-1-yl]-4,5-dihydropyrazolo[1,5-a]pyrazine-2-carboxamide] | 2.8 nM
Cc1cccc2ncc(-c3cn4nc(C(=O)NC5(c6ccc(Cl)cc6)CCC5)c(C(C)C)c4c(=O)[nH]3)cc12 [Example 4-50, N-[1-(4-Chlorophenyl)cyclobutyl]-6-(5-methylquinolin-3-yl)-4-oxo-3-(propan-2-yl)-4,5-dihydropyrazolo[1,5-a]pyrazine-2-carboxamide] | 8.3 nM
O=C(N[C@H](CN1CCOCC1)c1ccc(F)cc1)c1cc2c(=O)[nH]c(-c3ccc4ccccc4c3)cn2n1 [6-67] | 1.58 nM
Cc1ccc(-c2cn3nc(C(=O)N[C@H](C)C4CC4)c(C(F)(F)F)c3c(=O)[nH]2)cc1Cl [6-172] | 1.7 nM
COc1ccc(C2(NC(=O)c3cc4c(=O)[nH]c(-c5ccc(C)c(C)c5)cn4n3)CN(C(=O)OC(C)(C)C)C2)cc1 [Example 1-64, tert.-Butyl 3-({[6-(3,4-dimethylphenyl)-4-oxo-4,5-dihydropyrazolo[1,5-a]pyrazin-2-yl]carbonyl}-amino)-3-(4-methoxyphenyl)azetidine-1-carboxylate] | 4.55 nM
Cc1ccc(-c2cn3nc(C(=O)NC4(c5ccc(F)cc5)CN(C)C4)c(C4CC4)c3c(=O)[nH]2)cc1Cl [6-262] | 2.8 nM
Cc1ccc(-c2cn3nc(C(=O)NC[C@@]4(C5CC5)NC(=O)NC4=O)c(C4CC4)c3c(=O)[nH]2)cc1C [6-456] | 5.95 nM
Cc1ccc(-c2cn3nc(C(=O)NCC(O)C(F)(F)F)c(C(F)(F)F)c3c(=O)[nH]2)cc1C (single isomer, unassigned) [6-117] | 3.85 nM
COc1ccc(CCNC(=O)c2nn3cc(-c4ccc5ccccc5c4)[nH]c(=O)c3c2C(C)C)cc1OC [6-85] | 0.887 nM
Cc1ccc(-c2cn3nc(C(=O)N[C@@H](C)C(C)C)c(C4CC4)c3c(=O)[nH]2)cc1Cl [6-252] | 0.84 nM
Cc1ccc(-c2cn3nc(C(=O)N[C@@]4(C)CCS(=O)(=O)C4)c(C4CC4)c3c(=O)[nH]2)cc1F (racemic) [6-376] | 5.07 nM
O=C(NC(CO)(CO)C(F)(F)F)c1nn2cc(-c3ccc4ccccc4c3)[nH]c(=O)c2c1C(F)(F)F [6-498] | 7.13 nM
Cc1cccc2ncc(-c3cn4nc(C(=O)NC(CCO)c5ccccc5Cl)c(C(C)C)c4c(=O)[nH]3)cc12 (stereo not drawn) [Example 4-44, N-[1-(2-Chlorophenyl)-3-hydroxypropyl]-3-isopropyl-6-(5-methyl-3-quinolyl)-4-oxo-5H-pyrazolo[1,5-a]pyrazine-2-carboxamide] | 1.45 nM
Cc1ccc(-c2cn3nc(C(=O)NC(C)c4ccc(F)cc4)cc3c(=O)[nH]2)cc1C(F)(F)F (stereo not drawn) [6-25] | 9.1 nM
COc1cc(-c2cn3nc(C(=O)N[C@@H](c4ccc(F)cc4)C(C)(C)O)c(C4CC4)c3c(=O)[nH]2)ccc1Cl [6-484] | 1.8 nM
Cc1c(C(=O)NC2(c3ccccc3)CC2)nn2c(C)c(-c3ccc4ccccc4c3)[nH]c(=O)c12 [Example 3-25, 3,7-Dimethyl-6-(naphthalen-2-yl)-4-oxo-N-(1-phenylcyclopropyl)-4,5-dihydropyrazolo[1,5-a]pyrazine-2-carboxamide] | 2.4 nM
CC(NC(=O)c1nn2cc(-c3ccc4ccccc4c3)[nH]c(=O)c2c1C#N)c1ccc(Cl)cc1Cl (stereo not drawn) [Example 3-58, 3-Cyano-N-[1-(2,4-dichlorophenyl)ethyl]-6-(2-naphthyl)-4-oxo-5H-pyrazolo[1,5-a]pyrazine-2-carboxamide] | 2.35 nM
Cc1ccc(-c2cn3nc(C(=O)NC(C)(C)c4ccc(F)cc4)cc3c(=O)[nH]2)cc1C [6-45] | 2.55 nM
O=C(NC(c1cccc(F)c1)C(F)F)c1cc2c(=O)[nH]c(-c3ccc4ccccc4c3)cn2n1 (stereo not drawn) [Example 2-13, N-[2,2-Difluoro-1-(3-fluorophenyl)ethyl]-6-(2-naphthyl)-4-oxo-4,5-dihydropyrazolo[1,5-a]pyrazine-2-carboxamide] | 1.3 nM

Compound | IC50
Cc1ccc(-c2cn3nc(C(=O)NC(CO)C(F)(F)F)c(C4CC4)c3c(=O)[nH]2)cc1C(F)(F)F (racemic) [6-248] | 2.45 nM
Cc1ccc(-c2cn3nc(C(=O)NC(C)C4CCC4)c(C(F)(F)F)c3c(=O)[nH]2)cc1Cl (single isomer, unassigned) [6-195] | 1.55 nM
COc1ccc2c(c1)C(NC(=O)c1cc3c(=O)[nH]c(-c4ccc5ccccc5c4)cn3n1)CC(C)(C)O2 (stereo not drawn) [Example 2-16, N-[6-Methoxy-2,2-dimethyl-3,4-dihydro-2H-chromen-4-yl]-6-(2-naphthyl)-4-oxo-4,5-dihydropyrazolo[1,5-a]pyrazine-2-carboxamide] | 6.2 nM
CC(C)c1c(C(=O)N[C@H](C)C2CC2)nn2cc(-c3ccc(Cl)c(F)c3)[nH]c(=O)c12 [6-540] | 0.85 nM
Cc1ccc(-c2cn3nc(C(=O)NC(c4ccc(F)cc4)C(F)(F)CO)cc3c(=O)[nH]2)cc1C (racemic) [6-357] | 1.95 nM
CCn1cc(CNC(=O)c2nn3cc(-c4ccc5ccccc5c4)[nH]c(=O)c3c2Cl)c(C)n1 [6-10] | 1.4 nM
Cc1ccc(-c2cn3nc(C(=O)N[C@H](CCO)c4ccc(F)cc4)c(C(F)(F)F)c3c(=O)[nH]2)cc1C [Example 1-94, 6-(3,4-Dimethylphenyl)-N-[(1R)-1-(4-fluorophenyl)-3-hydroxpropyl]-4-oxo-3-(trifluoromethyl)-4,5-dihydropyrazolo[1,5-a]pyrazine-2-carboxamide] | 0.765 nM
Cc1cc(-c2cn3nc(C(=O)N[C@@H](C)C4CC4)c(C4CC4(F)F)c3c(=O)[nH]2)ccc1Cl (stereo partly drawn) [6-550] | 0.84 nM
CC(NC(=O)c1cc2c(=O)[nH]c(-c3ccc4cccnc4c3)cn2n1)c1ccc(F)cc1 (stereo not drawn) [6-27] | 2.63 nM
COc1ccccc1C(C)NC(=O)c1nn2c(C)c(-c3ccc4ccccc4c3)[nH]c(=O)c2c1C (stereo not drawn) [Example 3-28, N-[1-(2-Methoxyphenyl)ethyl]-3,7-dimethyl-6-(2-naphthyl)-4-oxo-5H-pyrazolo[1,5-a]pyrazine-2-carboxamide] | 4.3 nM
N#Cc1c(C(=O)NCCn2ccc(C3CC3)n2)nn2cc(-c3ccc4ccccc4c3)[nH]c(=O)c12 [Example 3-77, 3-Cyano-N-[2-(3-cyclopropyl-1H-pyrazol-1-yl)ethyl]-6-(naphthalen-2-yl)-4-oxo-4,5-dihydropyrazolo[1,5-a]pyrazine-2-carboxamide] | 4.65 nM
COc1cccc(CNC(=O)c2cc3c(=O)[nH]c(-c4ccc5ccccc5c4)cn3n2)c1 [Example 2-23, N-(3-Methoxybenzyl)-6-(2-naphthyl)-4-oxo-4,5-dihydropyrazolo[1,5-a]pyrazine-2-carboxamide] | 1.14 nM
Cc1ccc(-c2cn3nc(C(=O)NCC(O)C(F)(F)F)c(C(F)(F)F)c3c(=O)[nH]2)cc1Cl (racemic) [6-158] | 1.55 nM
CC(C)c1c(C(=O)N[C@@H](C)c2ccc(F)cc2)nn2cc(-c3ccc4ccccc4c3)[nH]c(=O)c12 [Example 1-9, N-[(1S)-1-(4-Fluorophenyl)ethyl]-6-(naphthalen-2-yl)-4-oxo-3-(propan-2-yl)-4,5-dihydropyrazolo-[1,5-a]pyrazine-2-carboxamide] | 2.37 nM
O=C(NC1(c2ccc(F)cc2)CN(CC(F)(F)F)C1)c1nn2cc(-c3ccc(Cl)c(F)c3)[nH]c(=O)c2c1C1CC1 [6-103] | 0.74 nM
O=C(NCC(O)C(F)(F)F)c1nn2cc(-c3ccc4c(c3)OCCO4)[nH]c(=O)c2c1C1CC1 (racemic) [6-465] | 1.75 nM
Cc1ccc(-c2cn3nc(C(=O)NC(C)(C)C4CC4)c(C(F)(F)F)c3c(=O)[nH]2)cc1Cl [6-191] | 0.97 nM
C[C@@H](CO)NC(=O)c1nn2cc(-c3ccc(Cl)c(Cl)c3)[nH]c(=O)c2c1C1CC1 [6-414] | 5.55 nM
Cc1ccc(-c2cn3nc(C(=O)NC4(c5ccc(F)cc5)CN(C)C4)c(C(F)(F)F)c3c(=O)[nH]2)cc1Cl [Example 1-153, 6-(3-Chloro-4-methylphenyl)-N-[3-(4-fluorophenyl)-1-methylazetidin-3-yl]-4-oxo-3-(trifluoromethyl)-4,5-dihydropyrazolo[1,5-a]pyrazine-2-carboxamide] | 5.4 nM
Cc1ccc(-c2cn3nc(C(=O)NCC(O)C(F)(F)F)c(C4CC4)c3c(=O)[nH]2)cc1Cl (single isomer, unassigned) [6-259] | 0.64 nM
Cc1ccc(-c2cn3nc(C(=O)N[C@H](C)C(C)C)c(C4CC4)c3c(=O)[nH]2)cc1C [Example 1-143, 3-Cyclopropyl-6-(3,4-dimethylphenyl)-N-[(2R)-3-methylbutan-2-yl]-4-oxo-4,5-dihydropyrazolo-[1,5-a]pyrazine-2-carboxamide] | 1.5 nM
